In ChEMBL document CHEMBL1133198, “Prenylated xanthones as potential P-glycoprotein modulators” (Bioorg Med Chem Lett, 2000):

Experiment: Binding affinity of compound to P-glycoprotein recombinant domain of prenylated xanthones was evaluated

Row | Structure (SMILES) | Kd
1 | COCCOCOc1cc(O)c2c(=O)cc(-c3ccccc3)oc2c1 | 8.05 µM
2 | COc1cc(O)c2c(=O)c3c(OC)c(OC)ccc3oc2c1 [DECUSSATIN] | 28.8 µM
3 | COc1cc(OCC=C(C)C)c2c(=O)c3c(OC)c(OC)ccc3oc2c1 | 13.9 µM
4 | C=CC(C)(C)c1c(OCOCCOC)cc2oc(-c3ccccc3)cc(=O)c2c1O | 0.1 µM
5 | COc1cc2oc3ccc(OC)c(OC)c3c(=O)c2c2c1C(C)(C)C(C)O2 (stereo not given) | 24.8 µM

Continued by falling Kd, values first:

Row | Kd | Structure (SMILES)
6 | 6.1 µM | COCCOCOc1cc(OCC=C(C)C)c2c(=O)cc(-c3ccccc3)oc2c1
7 | 0.59 µM | COc1cc(O)c2c(=O)c3c(OC)c(OC)ccc3oc2c1CC=C(C)C
8 | 0.39 µM | COc1cc2oc3ccc(OC)c(OC)c3c(=O)c2c(O)c1CC=C(C)C
9 | 0.25 µM | C=CC(C)(C)c1c(OC)cc2oc3ccc(OC)c(OC)c3c(=O)c2c1O
10 | 0.1 µM | COCCOCOc1cc(O)c2c(=O)cc(-c3ccccc3)oc2c1CC=C(C)C
